{"source": "PubChem BioAssay AID1963875", "about": "(Molecular Pharmacology Branch, DTP, NCI, 2024);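 as to viability, T/C: viability read after seven days of compound exposure; 100% = DMSO vehicle-treated spheroids so lower means less viable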", "tested_on": "KRAS-mutant PDC complex spheroid viability", "assay": "Anticancer human tumor 186277-243-T-J2-PDC patient-derived colon adenocarcinoma cell line growth inhibition [KRAS2]", "settings": "for IC50: curve of first compound; for viability, T/C: stronger effect = lower value", "excerpt": "Multicellular complex tumor spheroid response to RAS pathway inhibitors in combination with a targeted agents in patient-derived cell lines with oncogenic KRAS variants from multiple cancer types\nA high-throughput screen of multi-cell type tumor spheroids was designed to identify active combinations of targeted small molecules and KRAS pathway inhibitors. Complex spheroids include a stromal component modeled by human endothelial cells (HUVEC) and fibroblasts modeled by human mesenchymal stem cells (MSCs). The concentration ranges selected for each drug and investigational agent were based upon clinically achievable concentrations if the clinical Cmax of the agent was known.\nCompounds. The drugs and investigational agents: BI-3406 (NSC825286), BAY-293 (NSC824723), batoprotafib (TNO155; NSC825523), sotorasib (AMG 510; NSC818433), MRTX1257 (NSC819558), elimusertib (BAY 1895344; NSC800525), molibresib (GSK525762; NSC774829), temuterkib (LY3214996; NSC803410), venetoclax (NSC766270), alisertib (NSC759677), olaparib (NSC753686), talazoparib (NSC767125), erdafitinib (NSC781556), ipatasertib (NSC767898), cabozantinib (NSC761068), nintedanib (NSC756659), abemaciclib (NSC768073), docetaxel (NSC628503), trametinib (NSC758246), and sapanisertib (NSC764658) were obtained from the National Cancer Institute (NCI) Developmental Therapeutics Program Chemical Repository. The FDA-approved anticancer drug set is available from the Developmental Therapeutics Program. […] The stock solutions were prepared in dimethyl sulfoxide (DMSO, Sigma-Aldrich, St. Louis, MO, cat. D2650) at 800-fold the tested concentration and stored at -70 degrees C prior to their use. All drugs and investigational agents were tested over a range starting from a high concentration at or near the clinical Cmax and decreasing in half-log increments. If the clinical Cmax for an agent had not been determined, the highest concentration tested was 10 microM.\nCell Culture. All cells were maintained in an incubator at 37 degrees C and 5% CO2 with 95% humidity. The PDC lines were cultured according to standard operating procedures established by the NCI PDMR (https://pdmr.cancer.gov/sops/default.htm). Briefly, all PDCs were thawed and cultured in Matrigel-coated flasks prepared with a working solution of 1X Ham's F-12 nutrient mix, without supplementation (Invitrogen, Waltham, MA, cat. 11765054), 100 U/mL penicillin-streptomycin (Invitrogen, cat. 15140122), and 2.5% Matrigel (Corning Inc., Corning, NY, cat. 354248) for the first three passages. All PDCs were cultured in complete DMEM/F-12 media containing advanced DMEM/F-12 (Invitrogen, cat. 12634028), 4.9% defined fetal bovine serum, heat inactivated (HyClone Laboratories Inc., Logan, UT, cat. SH30070.03HI), 389 ng/mL hydrocortisone (Sigma-Aldrich, cat. H4001), 9.7 ng/mL human EGF recombinant protein (Invitrogen, cat. PHG0313), 23.4 microg/mL adenine (Sigma-Aldrich, cat. A2786), 97.3 U/mL penicillin-streptomycin (Invitrogen, cat. 15140122), 1.9 mM L-glutamine (Invitrogen, cat. 25030081), and 9.7 microM Y-27632 dihydrochloride (Tocris Bioscience, Bristol, United Kingdom, cat. 1254). The PDCs were cultured in complete DMEM/F12 media without 9.7 microM Y-27632 dihydrochloride for at least two passages prior to the screen. The established cell line HOP-62 was cultured in RPMI 1640 medium, HEPES (Invitrogen, cat. 22400105) with 10% defined fetal bovine serum (HyClone Laboratories Inc., cat. SH30070.03) and 2 mM L-glutamine (Invitrogen, cat. 25030081). The pooled donor HUVEC were cultured in endothelial cell growth medium 2 (PromoCell, Heidelberg, Germany, cat. C-22011) and the hMSC were cultured in mesenchymal stem cell growth medium 2 (PromoCell, cat. C-28009). For all experiments, HUVEC and hMSC were used at passages </=5, while the malignant cell lines were used at passages </=15. […]", "key": {"[1]": {"settings": "second compound 0.0316 µM, first compound 0.0316 µM"}, "[2]": {"settings": "second compound 0.0316 µM, first compound 0.1 µM"}, "[3]": {"settings": "second compound 0.1 µM, first compound 0.0316 µM"}, "[4]": {"settings": "second compound 0.1 µM, first compound 0.1 µM"}, "[5]": {"settings": "second compound 0.316 µM, first compound 0.0316 µM"}, "[6]": {"settings": "second compound 0.316 µM, first compound 0.1 µM"}, "[7]": {"settings": "second compound 1 µM, first compound 0.0316 µM"}, "[8]": {"settings": "second compound 1 µM, first compound 0.1 µM"}, "[9]": {"settings": "second compound 3.16 µM, first compound 0.0316 µM"}, "[10]": {"settings": "second compound 3.16 µM, first compound 0.1 µM"}}}
{"smiles": "CC(C)n1nc(-c2ccc3oc(N)nc3c2)c2c(N)ncnc21", "note": "+ C=CC(=O)N1CCN(c2nc(OCC3CCCN3C)nc3c2CCN(c2cccc4cccc(C)c24)C3)CC1CC#N", "values": [{"measurement": "IC50", "setting": "second compound 0.0316 µM", "result": 7.13, "unit": "nM"}, {"measurement": "IC50", "setting": "second compound 0.1 µM", "result": 10.1, "unit": "nM"}, {"measurement": "IC50", "setting": "second compound 0.316 µM", "result": 13.6, "unit": "nM"}, {"measurement": "IC50", "setting": "second compound 1 µM", "result": 6.5, "unit": "nM"}, {"measurement": "IC50", "setting": "second compound 3.16 µM", "result": "< 0.316", "unit": "nM"}, {"measurement": "viability, T/C", "setting": "second compound 0.0316 µM, first compound 0.000316 µM", "result": 89.7, "unit": "%"}, {"measurement": "viability, T/C", "setting": "second compound 0.0316 µM, first compound 0.001 µM", "result": 78.9, "unit": "%"}, {"measurement": "viability, T/C", "setting": "second compound 0.0316 µM, first compound 0.00316 µM", "result": 63.5, "unit": "%"}, {"measurement": "viability, T/C", "setting": "second compound 0.0316 µM, first compound 0.01 µM", "result": 44.2, "unit": "%"}, {"measurement": "viability, T/C", "setting": "[1]", "result": 28.2, "unit": "%"}, {"measurement": "viability, T/C", "setting": "[2]", "result": 16.9, "unit": "%"}, {"measurement": "viability, T/C", "setting": "second compound 0.1 µM, first compound 0.000316 µM", "result": 88, "unit": "%"}, {"measurement": "viability, T/C", "setting": "second compound 0.1 µM, first compound 0.001 µM", "result": 101, "unit": "%"}, {"measurement": "viability, T/C", "setting": "second compound 0.1 µM, first compound 0.00316 µM", "result": 77.8, "unit": "%"}, {"measurement": "viability, T/C", "setting": "second compound 0.1 µM, first compound 0.01 µM", "result": 51.2, "unit": "%"}, {"measurement": "viability, T/C", "setting": "[3]", "result": 27.4, "unit": "%"}, {"measurement": "viability, T/C", "setting": "[4]", "result": 21.2, "unit": "%"}, {"measurement": "viability, T/C", "setting": "second compound 0.316 µM, first compound 0.000316 µM", "result": 106, "unit": "%"}, {"measurement": "viability, T/C", "setting": "second compound 0.316 µM, first compound 0.001 µM", "result": 111, "unit": "%"}, {"measurement": "viability, T/C", "setting": "second compound 0.316 µM, first compound 0.00316 µM", "result": 97.1, "unit": "%"}, {"measurement": "viability, T/C", "setting": "second compound 0.316 µM, first compound 0.01 µM", "result": 58.2, "unit": "%"}, {"measurement": "viability, T/C", "setting": "[5]", "result": 27, "unit": "%"}, {"measurement": "viability, T/C", "setting": "[6]", "result": 16.4, "unit": "%"}, {"measurement": "viability, T/C", "setting": "second compound 1 µM, first compound 0.000316 µM", "result": 102, "unit": "%"}, {"measurement": "viability, T/C", "setting": "second compound 1 µM, first compound 0.001 µM", "result": 96.1, "unit": "%"}, {"measurement": "viability, T/C", "setting": "second compound 1 µM, first compound 0.00316 µM", "result": 70.8, "unit": "%"}, {"measurement": "viability, T/C", "setting": "second compound 1 µM, first compound 0.01 µM", "result": 38.4, "unit": "%"}, {"measurement": "viability, T/C", "setting": "[7]", "result": 12.8, "unit": "%"}, {"measurement": "viability, T/C", "setting": "[8]", "result": 8.12, "unit": "%"}, {"measurement": "viability, T/C", "setting": "second compound 3.16 µM, first compound 0.000316 µM", "result": 0.26, "unit": "%"}, {"measurement": "viability, T/C", "setting": "second compound 3.16 µM, first compound 0.001 µM", "result": 0.19, "unit": "%"}, {"measurement": "viability, T/C", "setting": "second compound 3.16 µM, first compound 0.00316 µM", "result": 0.24, "unit": "%"}, {"measurement": "viability, T/C", "setting": "second compound 3.16 µM, first compound 0.01 µM", "result": 0.14, "unit": "%"}, {"measurement": "viability, T/C", "setting": "[9]", "result": 0.12, "unit": "%"}, {"measurement": "viability, T/C", "setting": "[10]", "result": 0.16, "unit": "%"}]}
{"smiles": "CCNC(=O)CC1N=C(c2ccc(Cl)cc2)c2cc(OC)ccc2-n2c(C)nnc21", "note": "(stereo not given) + C=CC(=O)N1CCN(c2nc(OCC3CCCN3C)nc3c2CCN(c2cccc4cccc(C)c24)C3)CC1CC#N", "values": [{"measurement": "IC50", "setting": "second compound 0.0316 µM", "result": "> 10000", "unit": "nM"}, {"measurement": "IC50", "setting": "second compound 0.1 µM", "result": "> 10000", "unit": "nM"}, {"measurement": "IC50", "setting": "second compound 0.316 µM", "result": "> 10000", "unit": "nM"}, {"measurement": "IC50", "setting": "second compound 1 µM", "result": 8180, "unit": "nM"}, {"measurement": "IC50", "setting": "second compound 3.16 µM", "result": "< 31.6", "unit": "nM"}, {"measurement": "viability, T/C", "setting": "[1]", "result": 100, "unit": "%"}, {"measurement": "viability, T/C", "setting": "[2]", "result": 102, "unit": "%"}, {"measurement": "viability, T/C", "setting": "second compound 0.0316 µM, first compound 0.316 µM", "result": 118, "unit": "%"}, {"measurement": "viability, T/C", "setting": "second compound 0.0316 µM, first compound 1 µM", "result": 171, "unit": "%"}, {"measurement": "viability, T/C", "setting": "second compound 0.0316 µM, first compound 3.16 µM", "result": 151, "unit": "%"}, {"measurement": "viability, T/C", "setting": "second compound 0.0316 µM, first compound 10 µM", "result": 118, "unit": "%"}, {"measurement": "viability, T/C", "setting": "[3]", "result": 106, "unit": "%"}, {"measurement": "viability, T/C", "setting": "[4]", "result": 99, "unit": "%"}, {"measurement": "viability, T/C", "setting": "second compound 0.1 µM, first compound 0.316 µM", "result": 113, "unit": "%"}, {"measurement": "viability, T/C", "setting": "second compound 0.1 µM, first compound 1 µM", "result": 169, "unit": "%"}, {"measurement": "viability, T/C", "setting": "second compound 0.1 µM, first compound 3.16 µM", "result": 154, "unit": "%"}, {"measurement": "viability, T/C", "setting": "second compound 0.1 µM, first compound 10 µM", "result": 116, "unit": "%"}, {"measurement": "viability, T/C", "setting": "[5]", "result": 99.9, "unit": "%"}, {"measurement": "viability, T/C", "setting": "[6]", "result": 96.9, "unit": "%"}, {"measurement": "viability, T/C", "setting": "second compound 0.316 µM, first compound 0.316 µM", "result": 125, "unit": "%"}, {"measurement": "viability, T/C", "setting": "second compound 0.316 µM, first compound 1 µM", "result": 149, "unit": "%"}, {"measurement": "viability, T/C", "setting": "second compound 0.316 µM, first compound 3.16 µM", "result": 130, "unit": "%"}, {"measurement": "viability, T/C", "setting": "second compound 0.316 µM, first compound 10 µM", "result": 102, "unit": "%"}, {"measurement": "viability, T/C", "setting": "[7]", "result": 97, "unit": "%"}, {"measurement": "viability, T/C", "setting": "[8]", "result": 107, "unit": "%"}, {"measurement": "viability, T/C", "setting": "second compound 1 µM, first compound 0.316 µM", "result": 138, "unit": "%"}, {"measurement": "viability, T/C", "setting": "second compound 1 µM, first compound 1 µM", "result": 138, "unit": "%"}, {"measurement": "viability, T/C", "setting": "second compound 1 µM, first compound 3.16 µM", "result": 93.6, "unit": "%"}, {"measurement": "viability, T/C", "setting": "second compound 1 µM, first compound 10 µM", "result": 40.8, "unit": "%"}, {"measurement": "viability, T/C", "setting": "[9]", "result": 1.32, "unit": "%"}, {"measurement": "viability, T/C", "setting": "[10]", "result": 10.2, "unit": "%"}, {"measurement": "viability, T/C", "setting": "second compound 3.16 µM, first compound 0.316 µM", "result": 1.62, "unit": "%"}, {"measurement": "viability, T/C", "setting": "second compound 3.16 µM, first compound 1 µM", "result": 1.12, "unit": "%"}, {"measurement": "viability, T/C", "setting": "second compound 3.16 µM, first compound 3.16 µM", "result": 0.2, "unit": "%"}, {"measurement": "viability, T/C", "setting": "second compound 3.16 µM, first compound 10 µM", "result": 0.24, "unit": "%"}]}
